# Data as given in US12668572B2, “Degradable lipid for active molecule delivery and lipid nanoparticle thereof” (BEIJING CARRIUS BIO LTD., priority 2023, dated 2026).
# System: expression of luciferase (firefly luciferase mRNA) in liver
# Experiment: In vivo luciferase imaging (IVIS) of liver after tail vein administration of Fluc mRNA/LNPs
# Set-up: species or system Balb/c mice
# Conditions: 6 hours; for Average intensity (comparison with SM102 and MC3): N/P 7.5, tail vein, liver
# Procedure: In order to achieve mRNA delivery at animal level, the inventors prepared mRNA/lipid nanoparticles using the method as follows: formulating each of the ionizable lipid compounds (YX8, YX17, YX31, YX27, YX28, YX35, YX29 or YX33) prepared in Example 1, cholesterol, DOPE and DMG-PEG2000 into a 10 mg/mL ethanol solution. Taking YX27 as an example, when preparing an mRNA/LNP complex in a single time, YX27 solution (1.6 mg) was measured and mixed with cholesterol, DOPE and DMG-PEG2000 according to a molar ratio of 50:38.5:10:1.5, and the total volume of the solution was allowed to reach 450 μl by supplementing ethanol. 150 μg of firefly luciferase mRNAs were taken and added to a sodium acetate buffer (50 mM, pH=5.2), and the total volume of the solution was 1350 μl. The ionizable lipid compound solution and the mRNA solution were mixed by introducing into a microfluidic machine (speed: 0.2 mL/min of ethanol solution, and 0.6 mL/min of sodium acetate buffer solution) to prepare lipid nanoparticles encapsulating mRNAs, which were dialyzed against PBS buffer for 2 hours, and the obtained samples were directly used for animal experiments. The ratio of the ionizable lipid compound YX27 to mRNAs was calculated according to the molar ratio (N/P) of the nitrogen atoms in YX27 to the phosphorus atoms in the phosphate skeleton of the mRNAs. In this example, N/P was 7.5.
# In order to verify the delivery effect of the above Fluc mRNA/LNP preparation, YX27 LNPs encapsulating 150 μg/kg Fluc mRNAs were injected into 6-8 week-old female Balb/c mice by administration via tail vein, or YX27 LNPs encapsulating 250 μg/kg Fluc mRNAs were injected into the hind legs of mice by intramuscular administration; after 6 hours, 200 μl of D-Lucifin (with a mass fraction of 30%) was injected by intraperitoneal administration, and the expression and intensity of luciferase in the whole body, liver and muscle administration sites were detected by PerkinElmer IVIS Lumina III small animal in vivo optical imaging system. In order to study the effect of the hydrophobic chain length of lipid compounds on mRNA delivery efficiency, LNP samples encapsulating Fluc mRNAs were prepared using lipid compounds YX9, YX8, YX17 and YX31 respectively according to YX27 experimental operation, and the efficiency of luciferase expression in mice was studied.
# In order to study the effect of the mixing ratio (N/P ratio) of ionizable lipids and mRNAs as the LNP components on the mRNA delivery efficiency, mixed samples of YX27 and luciferase mRNAs at N/P ratios of 7.5 and 9 were prepared according to the operation steps of Example 2, the mRNA delivery and the expression and intensity of luciferase in the whole body, liver and other sites were studied by administration via tail vein (the delivery results are shown in FIG. 3 and the table below).
# LNPs containing SM102 or MC3 as the cationic lipid and luciferase mRNAs at an N/P ratio of 7.5 were prepared according to the operation steps of Example 2, in which the dose of Fluc mRNAs was 25 μg/kg, 50 μg/kg or 150 μg/kg respectively; and then the mRNA delivery by the prepared LNPs and the expression and intensity of luciferase in the whole body, liver and other sites were studied by administration via tail vein. The delivery results are shown in FIG. 4A, FIG. 4B and the table below.
# In order to verify the expression efficiency of luciferase after administration of Fluc mRNA/LNPs as a function of time, YX27 solution encapsulating 150 μg/kg of Fluc mRNAs was injected into 6-8 week-old female Balb/c mice by administration via tail vein; 2 h, 4 h, 6 h, 18 h and 24 h after administration respectively, 200 μl of D-Lucifin (with a mass fraction of 30%) was injected by intraperitoneal administration, and the expression and intensity of luciferase in the whole body and liver site were detected by PerkinElmer IVIS Lumina III small animal in vivo optical imaging system. […]
smiles,measurement,setting,value
CCCCCCCCCCCOC(=O)CCCCCN(CCO)CCCCCCCC(=O)OC(CCCCCCCC)CCCCCCCC [SM102],Average intensity 50 μg/kg (lipids with different structures),"Fluc mRNA 50 μg/kg, N/P 7.5, liver tissue",2.02E+09 p/s
same,Average intensity 150 μg/kg (lipids with different structures),"Fluc mRNA 150 μg/kg, N/P 7.5, liver tissue",5.65E+09 p/s
same,Average intensity (comparison with SM102 and MC3),Fluc mRNA dose 25 μg/kg,1.20E+09 p/s
same,Average intensity (comparison with SM102 and MC3),Fluc mRNA dose 50 μg/kg,2.02E+09 p/s
same,Average intensity (comparison with SM102 and MC3),Fluc mRNA dose 150 μg/kg,5.65E+09 p/s
"CCCCC/C=C\C/C=C\CCCCCCCCC(CCCCCCCC/C=C\C/C=C\CCCCC)OC(=O)CCCN(C)C [MC3, D-Lin-MC3-DMA]",Average intensity (comparison with SM102 and MC3),Fluc mRNA dose 25 μg/kg,4.28E+08 p/s
same,Average intensity (comparison with SM102 and MC3),Fluc mRNA dose 50 μg/kg,8.40E+08 p/s
same,Average intensity (comparison with SM102 and MC3),Fluc mRNA dose 150 μg/kg,7.16E+09 p/s
